In patent US12616681B2, “Compositions and methods for treating renal injury” (priority 2019, dated 2026):

Experiments:
[1] = system: contrast-induced acute kidney injury (CIAKI) mice; test: CIAKI mouse model: necrotic and apoptotic cell death, gross findings; type: in vivo, C57/BL6 mice; details: 48 h after CM
Procedure: Kidneys were harvested at 48 h after the CM injection, fixed in 4% phosphate-buffered formalin, and embedded in paraffin. To evaluate necrosis, […] paraffin sections were stained with hematoxylin and eosin. Tubular injury was scored semi-quantitatively according to a system by a pathologist who examined at least 20 separate fields (400× magnification) in the outer medulla, which is the zone most sensitive to ischemic injury. The scoring system was as follows: 0, no damage; 1, patchy isolated unicellular necrosis; 2, tubular necrosis <25%; 3, tubular necrosis 25-50%; and 4, tubular necrosis >50%. At least 20 consecutive high-power fields per section were scored by two operators blind to the details of the experiment. To analyze the frequency of apoptosis, […] paraffin sections were subjected to terminal deoxynucleotidyl transferase-mediated dUTP nick-end labeling (TUNEL) assay (Millipore, Temecula, CA, USA) according to the manufacturer's protocol. Four […] paraffin sections were incubated with the TUNEL reaction mixture at 37° C. for 1 h, followed by incubation with a horseradish peroxidase-conjugated detection antibody. The signals were visualized using diaminobenzidine (Sigma-Aldrich). After counterstaining with Mayer's hematoxylin, TUNEL-positive cells were counted in at least five separate fields (640× magnification) in the outer medulla, and the apoptosis index (%, number of apoptosis cells/total number of cells) was calculated using GENASIS software.

[2] = system: human renal proximal tubular epithelial cells (hRPTECs); test: hRPTEC cell viability (MTT assay) with iodixanol; type: cell-based; details: iodixanol 50 mgI/mL, 24 h; PGE1 100 ng/mL, PGE2 100 nM vs CM vehicle; CM vs normal control
Procedure: 3-(4,5-Dimethyl thiazol-2-yl)-2,5-diphenyl tetrazolium bromide (MTT) assay was used to assess cell viability. The hRPTECs were cultivated in 96-well plates at a density of 10^5 cells/mL and then incubated for 24 h. […] Then, 10 µM MTT (Sigma-Aldrich) was added to each well for an additional 4 h. The blue MTT formazan precipitate was dissolved in 100 mL dimethyl sulfoxide. The absorbance at 540 nm was measured with a multi-well plate reader. Cell viability was expressed as a percentage of the no-treatment cells, as the mean value±standard deviation of the six independent experiments.

[3] = system: human renal proximal tubular epithelial cells (hRPTECs); test: hRPTEC apoptosis by flow cytometry with iodixanol; type: cell-based; details: drug with iodixanol 50 mgI/mL, 24 h
Procedure: Human renal proximal tubular epithelial cells (hRPTECs) were purchased from the American Type Culture Collection (#PCS-400-010TM, Manassas, VA, USA). These cells were grown in 75 cm^2 flasks in Renal Epithelial Cell Basal Medium (PCS-400-030TM, ATCCVR) supplemented with Renal Epithelial Cell Growth Kit (PCS-400-040TM, ATCCVR).
After the treatment described in the section above, the hRPTECs were pelleted by centrifugation at 1800 rpm for 10 min and incubated with annexin V fluorescein isothiocyanate and propidium iodide using an Apoptosis Detection Kit I (#556547, BD Biosciences, San Jose, CA, USA) according to the manufacture's instruction. Then quantification was conducted using a FACSC flow cytometer with Cell Quest software (BD Biosciences).

[4] = system: contrast-induced acute kidney injury (CIAKI) mice; test: CIAKI mouse model: renal blood flow (laser Doppler flux); type: in vivo, C57/BL6 mice; details: CM + drug, 48 h after CM
Procedure: Total RBF was assessed by measuring renal Doppler flux using noninvasive laser Doppler flowmetry (PeriFlux System 5000, Perimed AB, Sweden). Laser Doppler probes were placed on the kidney surface to measure the renal flux. The flux was measured 48 h after CM administration. The relative increase represented the percentage increase in renal blood flow from baseline to peak for each test. Statistical significance was set as p<0.05.

[5] = system: contrast-induced acute kidney injury (CIAKI) mice; test: CIAKI mouse model: AMP and adenosine levels in renal tissue; type: in vivo, C57/BL6 mice; details: 48 h after CM
Procedure: 48 h after CM administration, serum and kidney tissues were harvested. The adenosine levels in the serum and kidney tissues were measured using high-performance liquid chromatography.

[6] = rapidly degraded by 15-PGDH; cited from earlier work

In the case of CCCCC[C@H](O)/C=C/[C@H]1[C@H](O)CC(=O)[C@@H]1C/C=C\CCCC(=O)O [PGE2, prostaglandin E2], the “TUNEL-positive cell proportions vs CIAKI mice, in words” value [1] is reported as “significantly lower”, the “vascular congestion in the outer medullary region (gross findings)” value [1] is reported as “less-congested” and the “microscopic renal injury score” value ([1]; CM + drug, score 0-4) is reported as 1.55±0.14. The “cell viability (MTT), in words” value [2] was “did not show any difference”, the “apoptosis rate of hRPTECs” value [3] was 19.43±1.38% and the “RBF (renal Doppler flux)” value [4] was 541.4±22.65. For the same molecule, the “AMP level compared to CIAKI mice, in words” value [5] was “increased”, the “adenosine level compared to CIAKI mice, in words” value [5] was “increased” and the estimated half-life [6] was “less than 15 s”.
